Patent US20210330611A1, “THERAPY FOR NEUROLOGICAL DISEASES/DISORDERS” (priority 2020, published 2021)
Like-named read-outs stand apart in the source and are kept apart here. Where a SMILES comes first, the peptide text is derived from it. Bridges are numbered along the chain shown (N, C = ends). [ ]: non-standard residue; d: D form. The star is where a group is joined. X1 = CC[C@H](C)CCCCC(=O)*; Dab = NCC[C@H](N)C(=O)O

Experiments:
[1] = tested on: primary rat microglia; test: Cell toxicity (dead cells, size <150 μm2) in LPS assay; details: primary microglia HTS
[2] = tested on: LPS-induced microglia activation; test: Image-based assay of LPS-induced microglia activation (HTS and dose response); assay type: cell-based, rat; details: for LPS % inhibition / inhibition at 10 µM: primary microglia HTS; for inhibition at 10 µM: read-out: LPS % inhibition
[3] = tested on: fibrin- and LPS-induced microglia activation; test: cells; assay type: cell-based, rat
[4] = tested on: fibrin-induced microglia activation; test: Image-based assay of fibrin-induced microglia activation (HTS and dose response); assay type: cell-based, rat; details: for Fibrin % inhibition / inhibition at 10 µM: primary microglia HTS; for inhibition at 10 µM: read-out: Fibrin % inhibition
[5] = tested on: primary rat microglia; test: Cell toxicity (dead cells, size <150 μm2) in coated fibrin (cFib) assay; details: primary microglia HTS;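 further: share of dead cells sized under 150 µm2 at 10 µM in fibrin-stimulated microglia HTS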
[6] = LPS stimulation, decreased size (<150 μm^2) as marker of toxicity
[7] = LPS stimulation, increased cell size (>800 μm^2) as marker of activation
[8] = quadrant by fibrin and LPS inhibition in HTS of 1907 compounds
[9] = fibrin stimulation, increased cell size (>800 μm^2) as marker of activation
[10] = fibrin stimulation, decreased size (<150 μm^2) as marker of toxicity
[11] = Rattus norvegicus, Microglia, 48 h, LPS stimulation, increased cell size (>800 μm^2) as marker of activation
[12] = Rattus norvegicus, Microglia, fibrin stimulation, increased cell size (>800 μm^2) as marker of activation
[13] = 10 μM, LPS assay, cell size <150 μm^2 as marker of toxicity
[14] = Rattus norvegicus, Microglia, 10 μM, LPS-stimulated, cell size >800 μm^2 as marker of activation
[15] = HTS of 1907 compounds, quadrant by fibrin and LPS inhibition
[16] = Rattus norvegicus, Microglia, 10 μM, fibrin-stimulated, cell size >800 μm^2 as marker of activation
[17] = 10 μM, fibrin assay, cell size <150 μm^2 as marker of toxicity

| Compound | LPS % cell toxicity [1, 13] [%] | inhibition at 10 µM [2, 14] [%] | Quadrant (FIG. 5b) [3, 15] | inhibition at 10 µM [4, 16] [%] | Fibrin % cell toxicity [5, 17] [%] | also measured |
| --- | --- | --- | --- | --- | --- | --- |
| COc1ccnc(C[S+]([O-])c2nc3cc(OC(F)F)ccc3[n-]2)c1OC.[Na+] (stereo not drawn) [Pantoprazole, Pantoprazole Sodium Salt] |  |  |  |  |  | LPS % cell toxicity [1, 6]: 0%; LPS % inhibition [2, 7]: −1%; Quadrant (FIG. 5b) [3, 8]: Q4; Fibrin % inhibition [4, 9]: −8%; Fibrin % cell toxicity [5, 10]: 0% |
| COc1ccc(Cc2nccc3cc(OC)c(OC)cc23)cc1OC [Papaverine] |  |  |  |  |  | LPS % cell toxicity [1, 6]: 0%; inhibition at 10 µM [2, 11]: 27%; Quadrant (FIG. 5b) [3, 8]: Q4; inhibition at 10 µM [4, 12]: 12%; Fibrin % cell toxicity [5, 10]: 0% |
| NC(=O)NC(=O)Cc1ccccc1 [Phenacemide] |  |  |  |  |  | LPS % cell toxicity [1, 6]: 1%; inhibition at 10 µM [2, 11]: 66%; Quadrant (FIG. 5b) [3, 8]: Q1; inhibition at 10 µM [4, 12]: -9%; Fibrin % cell toxicity [5, 10]: 1% |
| CC[C@H](C)CCCCC(=O)N[C@@H](CCN)C(=O)N[C@H](C(=O)N[C@@H](CCN)C(=O)N[C@H]1CCNC(=O)[C@H]([C@@H](C)O)NC(=O)[C@H](CCN)NC(=O)[C@H](CCN)NC(=O)[C@H](CC(C)C)NC(=O)[C@@H](Cc2ccccc2)NC(=O)[C@H](CCN)NC1=O)[C@@H](C)O [Polymyxin B1] (X1-[Dab]T[Dab][Dab][Dab][dF]L[Dab][Dab]T; lactam 4-C) |  |  |  |  |  | LPS % cell toxicity [1, 6]: 1%; LPS % inhibition [2, 7]: 60%; Quadrant (FIG. 5b) [3, 8]: Q1; Fibrin % inhibition [4, 9]: −21%; Fibrin % cell toxicity [5, 10]: 1% |
| CC(=O)OCC(=O)[C@@]1(O)CC[C@H]2[C@@H]3CCC4=CC(=O)C=C[C@]4(C)[C@H]3[C@@H](O)C[C@@]21C [Prednisolone acetate, reference compound] |  |  |  |  |  | LPS % cell toxicity [1, 6]: 6%; inhibition at 10 µM [2, 11]: 111%; IC50 ([2]; Rattus norvegicus, Microglia, Table 7, read-out: LPS_IC50): 3 nM; Quadrant (FIG. 5b) ([3]; Table 2, screen at 10 μM): Q2; Activity ([3]; Table 7, fib = fibrin, LPS, tox = toxicity): fib/LPS; Quadrant (FIG. 5b) [3, 8]: Q2; IC50 ([4]; Rattus norvegicus, Microglia, Table 7, read-out: fib_IC50): 3 nM; inhibition at 10 µM [4, 12]: 109%; Fibrin % cell toxicity [5, 10]: 4% |
| CN(C)CCCN1c2ccccc2Sc2ccccc21 [Promazine] |  |  |  |  |  | LPS % cell toxicity [1, 6]: 64%; inhibition at 10 µM [2, 11]: 117%; Quadrant (FIG. 5b) [3, 8]: Q1; inhibition at 10 µM [4, 12]: 46%; Fibrin % cell toxicity [5, 10]: 1% |
| C[C@]12Cc3c[nH]nc3C[C@@H]1CC[C@@H]1[C@@H]2CC[C@@]2(C)[C@H]1CC[C@]2(C)O [Stanozolol] | 1 | 33 | Q4 | -5 | 1 |  |
| Cc1cn([C@H]2C=C[C@@H](CO)O2)c(=O)[nH]c1=O [Stavudine] | 0 | 19 | Q4 | -17 | 1 |  |
| O=C(O)[C@@H](S)[C@@H](S)C(=O)O [Succimer] | 0 | -5 | Q4 | -37 | 0 |  |
| C[N+](C)(C)CCOC(=O)CCC(=O)OCC[N+](C)(C)C [Succinylcholine] | 0 | -5 | Q4 | -54 | 1 |  |
| O=C(O)CCC(=O)Nc1ccc(S(=O)(=O)Nc2nccs2)cc1 [Succinylsulfathiazole] | 1 | 16 | Q4 | 15 | 1 |  |
| OC[C@H]1O[C@H](O[C@]2(CCl)O[C@H](CCl)[C@@H](O)[C@@H]2O)[C@H](O)[C@@H](O)[C@H]1Cl [Sucralose] | 0 | 16 | Q4 | 0 | 1 |  |
| S=C1SCN(Cc2ccccc2)CN1Cc1ccccc1 [Sulbentine] | 0 | 13 | Q4 | 48 | 1 |  |
| Nc1ccc(S(=O)(=O)NC(=O)c2ccccc2)cc1 [Sulfabenzamide] | 1 | 19 | Q4 | -15 | 1 |  |
| NC(=O)NS(=O)(=O)c1ccc(N)cc1 [Sulfacarbamide] | 0 | 46 | Q4 | 45 | 1 |  |
| CC(=O)NS(=O)(=O)c1ccc(N)cc1 [Sulfacetamide] | 0 | 10 | Q4 | -2 | 1 |  |
| Nc1ccc(S(=O)(=O)Nc2ccc(Cl)nn2)cc1 [Sulfachlorpyridazine] | 0 | 14 | Q4 | 18 | 1 |  |
| COc1cc(NS(=O)(=O)c2ccc(N)cc2)nc(OC)n1 [Sulfadimethoxine] | 0 | 13 | Q4 | 42 | 1 |  |
| COc1ncnc(NS(=O)(=O)c2ccc(N)cc2)c1OC [Sulfadoxine] | 0 | 3 | Q4 | -12 | 1 |  |
| [H]/N=C(/N)NS(=O)(=O)c1ccc(N)cc1 [Sulfaguanidine] | 0 | 12 | Q4 | -23 | 1 |  |
| Cc1ccnc(NS(=O)(=O)c2ccc(N)cc2)n1 [Sulfamerazine] | 0 | 12 | Q4 | -2 | 1 |  |
| COc1cnc(NS(=O)(=O)c2ccc(N)cc2)nc1 [Sulfameter] | 0 | 11 | Q4 | 4 | 1 |  |
